From patent US20080118494A1, “Compositions For Detection Of Latent Hiv Reactivation And Methods Of Using The Same” (priority 2004, published 2008)

How the values were obtained:
Format in all cases: cell-based
[1] = tested on: latent HIV-1 infection in bulk population of latently infected JLTRG cells; experiment: Reactivation of latent HIV-1 in a bulk population of latently infected cells, flow cytometry; details: optimal concentration of each compound, day 57 bulk population, 100,000 viable cells counted
Experimental: (A) Jurkat cells were infected with an EGFP expressing, replication incompetent reporter virus and the level of productive HIV-1 infection at each indicated time-point was directly assessed by flow cytometric analysis for EGFP expression (untreated; black circles). Levels of initial non-productive and later on latent HIV-1 infection was determined 24 hours following TNF-α stimulation (black squares). The results represent the mean ±S.D. of three independent experiments.
a) Quantification of the HIV-1 reactivating capabilities of test compounds. Following infection, HIV-1 integrates into the cellular genome. Integration is random, although HIV-1 preferentially integrates into euchromatin structures. Latency development can be thus influenced by a multitude of factors that alter gene expression or DNA structure, such as divergent gene expression patterns or the cell cycle stage at the time point of viral integration. Although the reporter cell lines are representative for the majority of latently infected cells and reliably identify most reactivating agents during the screening effort, they can not allow quantification of the capability of the individual compounds to reactivate HIV-1 infection from a diverse population of latently infected cells. To account for the influence that the side of integration of a latent virus can have on a compounds ability to reactivate the virus, a bulk population of latently infected cells (FIG. 7) was established. Following infection of JLTRG cells with HIV-1 NL43, a rapid increase of the level of infection can be observed. On day 3, an average 27% of the cells were productively infected. […] Until day 15, the percentage of productively infected cells rapidly declined to 3% of the overall cell population. At this time point, an additional 5% of the cells were non-productively infected. […] Since 1×10^6 cells were initially infected, and virus mediated inhibition of cell proliferation influences the relative level of infection over time can be excluded, it can be calculated that the latently infected cell population should consist of […] individual latently infected cells. This bulk population of cells allows quantification of the capability of the respective compounds to reactivate latent HIV-1. […] Each compound was titrated over a two-log concentration range to allow for optimal reactivation. The results for the optimal concentration of each compound are depicted in FIG. 7B. […] TNF-α (10 ng/ml) reactivated latent HIV-1 infection in 5% of the cells, whereas the DNA histone deacetylase inhibitors trichostatin A (TSA) and sodium butyrate (NaBu) reactivated latent HIV-1 infection in only 3% or 2.5% of the cells, respectively. To achieve an accurate estimate of the differences in the capability of different agents to reactivate HIV-1 infection it is important to run a sufficiently high number of cells. For this flow cytometry based analysis, 100,000 cells viable per sample were counted.

[2] = tested on: HIV-1 Tat / HIV-1 transcription in J89GFP cells; experiment: Suppression of TNF-α mediated HIV-1 reactivation in J89GFP cells by Tat inhibitor; details: 10 μM
Experimental: EGFP expression following TNF-α (1 ng/ml) mediated reactivation of latent HIV-1 infection in J89GFP cells in the presence or absence of Ro24-7429 (10 μM). Following stimulation, area (A+B) represents the total amount of virus produced over a two day period of time, whereas area B represents the amount of virus produced in the presence of Ro24-7429. Results represent the mean ±S.D. of three independent experiments.
The latently HIV-1 infected reporter T cell line J89GFP (Kutsch et al., 2002) was pretreated with the respective compound and then stimulated with various concentrations of TNF-α. As reactivation of latent HIV-1 is dependent on Tat activity, a sufficiently potent Tat inhibitor would suppress HIV-1 reactivation as indicated by […] in EGFP fluorescence. […] Levels of reactivation with respect to the percentage of HIV-1 positive cells, as well as the EGFP MCF intensity were identical. Whereas EGFP expression in TNF-α treated J89GFP in the absence of Ro24-7429 continued to increase until 96 h post stimulation, EGFP MCF peaked after 48 h, reaching 50% of the maximal EGFP MCF seen in the absence of Ro24-7429, and the slowly declined again (FIG. 14). The observed increase of EGFP fluorescence in TNF-α treated J89GFP cells can be described as an invasion kinetics of the first order, whereas the kinetics of EGFP expression following TNF-α mediated reactivation of HIV-1 in the presence of Ro24-7429 can be best described by a Bateman function, that describes onset and elimination of HIV-1 expression. Again, integration of the equation describing each curve allows for the determination of the relative amount of virus being produced in the critical 2 days time frame. Area (A+B) represents the amount of virus produced following reactivation, and Area B represents the amount of virus produced in the presence of Ro24-7429.

[3] = tested on: CD28 mediated HIV-1 reactivation in J89GFP cells; experiment: Inhibition of activating anti-CD28 antibody (5D10) mediated HIV-1 reactivation in J89GFP cells; details: J89GFP pretreated, then stimulated with 5D10; inhibitors 1 μM
Experimental: The results are representative for five independent experiments. […] (C) J89GFP cells were pretreated for two hours with the specific ERK-inhibitor U0126 (control: U0124) or the specific p38-inhibitor SB202190 (control: SB202474) and then stimulated with activating anti-CD28 antibody 5D10 (1 μg/ml). Level of reactivation was measured as %-EGFP^+ cells using flow cytometry. Results represent the mean ±S.D. of three independent experiments.

JEGFP cells = details: 10,000 JEGFP cells/well, 384-well plate, increasing amounts of compound
Experimental: JEGFP cells were seeded at a cell density of 1×10^4 cells/well into a 384-well plate and left untreated (Control) or treated with a low concentration of daunorubicin (0.0001 μg/ml). EGFP fluorescence as a measure of cell proliferation was then determined over a period of four days.
Influence of altered cell proliferation, cell viability and compound auto-fluorescence on EGFP fluorescence intensity. […] For example, compounds that have fluorochrome characteristics in the same excitation and emission range as EGFP can unspecifically increase the fluorescence signal and can cause false positive hits. On the other hand, too high concentrations of compounds that can reactivate latent HIV-1 infection, but within the chosen concentration range, either inhibit cell proliferation or decrease cell viability can result in false negative hits. […] Compounds that unspecifically increase EGFP expression in the latently infected LWI cells due to their fluorochrome characteristics also increase EGFP fluorescence in these cells, and can be detected as false positive hits. […] As JEGFP cells divide every 24 h and EGFP fluorescence intensity, when measured by plate based fluorometry, directly correlates with the cell density (FIG. 5), any influence of the tested compound on cell proliferation or cell viability can be immediately indicated by a drop in EGFP fluorescence. […]

For `CCCC(=O)[O-].[Na+]` [NaBu, sodium butyrate], the “cells in which latent HIV-1 infection was reactivated” value (from here on “cells”) [1] was 2.5%.

For `CNC1=Nc2ccc(Cl)cc2C(c2ccc[nH]2)=NC1` [Ro24-7429], the “influence on the level of HIV-1 expression during the first 24 h” value ([2]; TNF-α 1 ng/ml, first 24 h) was “had no influence on the level of HIV-1 expression”, the “inhibition of virus production” value ([2]; TNF-α 1 ng/ml, initial 2 days period, from integration of EGFP curves) was 20% and the “peak EGFP MCF relative to maximal EGFP MCF in the absence of inhibitor” value ([2]; TNF-α 1 ng/ml, peak after 48 h) was 50%. The “suppression of reactivation of latent HIV-1” value ([2]; in the presence of 1 ng/ml TNF-α) was “not capable of suppressing reactivation of latent HIV-1 infection”.

`Oc1ccc(-c2nc(-c3ccncc3)c(-c3ccc(F)cc3)[nH]2)cc1` [SB202190] was tested, and the “effect on HIV-1 reactivation by activating anti-CD28 antibody” value [3] was “efficiently abrogated the activating effect of the antibody and blocked HIV-1 reactivation”.

In the case of `CC(/C=C/C(=O)NO)=C\[C@@H](C)C(=O)c1ccc(N(C)C)cc1` [TSA, trichostatin A], the “cells” value [1] is reported as 3%.

`N#CC(=C(/N)Sc1ccccc1N)/C(C#N)=C(\N)Sc1ccccc1N` [U0126] was tested, and the “effect on HIV-1 reactivation by activating anti-CD28 antibody” value [3] was “efficiently abrogated the activating effect of the antibody and blocked HIV-1 reactivation”.

With `COc1cccc2c1C(=O)c1c(O)c3c(c(O)c1C2=O)C[C@@](O)(C(C)=O)C[C@@H]3O[C@H]1C[C@H](N)[C@H](O)[C@H](C)O1` [daunorubicin] the “EGFP expression as measure of cell proliferation/viability” value (JEGFP cells) was “sharp drop in EGFP expression”.

`CC(=O)O[C@@]12C[C@@H](C)[C@@]3(O)[C@@H](C=C(CO)C[C@]4(O)C(=O)C(C)=C[C@@H]34)[C@@H]1C2(C)C` [prostratin] was tested, and the “cells” value [1] was 6%.
